# Experimental data: patent US20130150434A1 (SOMAXON PHARMACEUTICALS, INC., priority 2006, published 2013)
# Key:
# [1] = system: chronic primary insomnia patients with sleep maintenance difficulties; experiment: Phase III study of doxepin, rebound insomnia by PSG during the 2-day discontinuation period; type: in vivo, human; conditions: for WASO (rebound insomnia analysis), Median: Baseline = worst WASO value of Nights −6 and −5; for WASO (rebound insomnia analysis), Mean (SD): Baseline = worst WASO value of Nights −6 and −5 from Visit 3; for WASO, Change from Baseline to Visit 7, Night 36, Median / WASO, Change from Baseline to Visit 7, Night 37, Median / WASO, Change from Baseline to Visit 7, Night 36, Mean (SD) / WASO, Change from Baseline to Visit 7, Night 37, Mean (SD): discontinuation
# Excerpt: The term “rebound insomnia” refers to the common occurrence that a person may have more trouble sleeping the first few nights after a sedative medicine is stopped than before starting the medicine. After more than a few days' use, discontinuing a hypnotic or sedative medication can make the original sleep problem worse and can cause an increase anxiety. Rebound insomnia may be measured as the mean change in mean wake time after sleep onset (WASO) from baseline to the first night of discontinuation.
# Patients were discharged from the sleep center after all final study-related procedures had been completed on the Final Study Day (Day 38, Early Termination [ET]).
# (§1) Safety: Safety was assessed based on AEs, clinical laboratory tests (hematology, serum chemistry, and urinalysis), vital signs, physical examinations, neurological assessments, 12-lead ECGs, and ratings of hangover/residual effects (digit-symbol substitution test (DSST), symbol copying test (SCT), and the visual analog scale (VAS) for sleepiness), assessment of rebound insomnia using PSG recordings during the discontinuation period, and withdrawal symptoms using the benzodiazepine withdrawal symptom questionnaire (BWSQ).
# [2] = Phase III study of doxepin, safety assessments (body weight, residual effects, withdrawal symptoms, laboratory tests, ECG); type: in vivo, human
# Protocol: Safety assessments including adverse events (AEs), vitals, and neurological assessments were performed throughout the study period. Other safety assessments, including clinical laboratory tests, electrocardiograms (ECGs), and physical examinations (PEs) were performed before and after the study treatment period. For early termination, all safety assessments, including AEs neurological assessments, clinical laboratory tests, ECGs, vitals, and PEs were performed.
# as §1
# Safety analyses included all randomized patients who received at least one dose of double-blind study medication. Treatment assignment for safety data was based on the treatment actually received.
# [3] = system: chronic primary insomnia patients with sleep maintenance difficulties; experiment: Phase III study of doxepin, 8-hour PSG efficacy variables (WASO, TST, SE, LPS)
# Excerpt: Patients with at least a 3-month history of primary insomnia, according to Diagnostic and Statistical Manual of Mental Disorders, Fourth Edition Text Revision (DSM-IV-TR)-defined primary insomnia were enrolled.
# Patients were screened (Visit 1) to determine study eligibility and asked to discontinue any protocol-disallowed prescription or over-the-counter (OTC) medications used as sleep medication. At the beginning of the first week (polysomnography [PSG] Screening, Visit 2), eligible patients began two weeks of single-blind placebo dosing and had two consecutive nights of 8-hour PSG recording in the sleep center. Patients were required to meet the PSG screening criteria to remain eligible for the study. Patients were allowed to leave the sleep center during the day after the PSG Screening nights and continued to take single-blind placebo after PSG Screening (Visit 2) for five consecutive nights at home.
# Patients were allowed to leave the sleep center during the day after the PSG nights and continued taking single-blind placebo for five consecutive nights at home.
# After the PSG Screening and Baseline periods, patients began a 35-day double-blind treatment period during which they were given study drug supplies at each scheduled visit (Visits 4, 5, and 6). The scheduled study visits consisted of two consecutive nights of 8-hour PSG recording in the sleep center and next day assessments to assess sedative efficacy. Patients were asked to complete hangover/residual effects assessments, morning and evening questionnaires, and the Benzodiazepine Withdrawal Symptom Questionnaire (BWSQ) at each of these visits.
# Primary Efficacy: The primary efficacy variable was wake after sleep onset (WASO) obtained on Night 1 as determined by PSG recordings using the ITT analysis set.
# Additional PSG efficacy variables: Additional efficacy variables obtained on the first PSG assessment nights (Nights 1 and 29) included WASO (Night 29), wake time during sleep (WTDS), total sleep time (TST), sleep efficiency (SE), including whole night, third of the night, and by hour, and latency to persistent sleep (LPS), latency to Stage 2 sleep, number of awakenings after sleep onset (NAASO), total wake time (TWT), wake time after sleep (WTAS), and, sleep architecture including percentage and minutes of Stage 1, 2, and 3/4 non-rapid eye movement (NREM) sleep, percentage and minutes of rapid eye movement (REM) sleep, and latency to REM sleep.
# Methods used to analyze other endpoints were the same as those used to analyze WASO. For LPS, latency to REM sleep, latency to Stage 2 sleep, and LSO, data were expected to be log-normally distributed and were analyzed using log-transformed values (base 10). The safety data were analyzed primarily using descriptive statistical methods.
# All efficacy analyses were performed on the Intent-to-treat (ITT) analysis set. […] Data were analyzed as randomized and based on observed cases.
# [4] = Doxepin HCl 3 mg group, Night 36, N = 67 evaluable
# [5] = Doxepin HCl 3 mg group, Night 36 and Night 37, N = 67 evaluable
# [6] = Doxepin HCl 3 mg group, Visit 7, Night 37 (discontinuation)
# [7] = Doxepin HCl 6 mg group, Night 36, N = 68 evaluable
# [8] = Doxepin HCl 6 mg group, Night 36 and Night 37, N = 68 evaluable
# [9] = Doxepin HCl 6 mg group, Visit 7, Night 37 (discontinuation)
# [10] = doxepin 3 mg group, Baseline, ITT
# [11] = doxepin 3 mg, Night 1, ITT, p<0.0001 vs placebo
smiles,measurement,setting,value
"CN(C)CCC=C1c2ccccc2COc2ccccc21 [Doxepin, 11-(3-dimethylaminopropylidene)-6,11-dihydrodibenzo (b,e)oxepin]",Rebound insomnia (mean change in mean WASO from baseline to the first night of discontinuation),"[1]; 3 mg and 6 mg, 2-day discontinuation period following abrupt discontinuation of 35 nights of treatment",no rebound insomnia
same,Largest percentage of patients experiencing rebound effects,"[1]; 3 mg group at night 36, as measured by mean change in WASO",15%
same,"WASO (rebound insomnia analysis), Median",[1]; Doxepin HCl 3 mg group,79.5 min
same,"WASO (rebound insomnia analysis), Mean (SD)",[1]; Doxepin HCl 3 mg group,83.5 (41.35) minutes
same,"Rebound insomnia frequency: patients with LPS change from Baseline ≧20 minutes at Visit 7, count (%)",[1]; [4],7 (10%)
same,"Rebound insomnia frequency: patients with TST change from Baseline ≦−30 minutes at Visit 7, count (%)",[1]; [4],9 (13%)
same,"Rebound insomnia frequency: patients with WASO change from Baseline ≧35 minutes at Visit 7, count (%)",[1]; [4],10 (15%)
same,"Rebound insomnia frequency: patients with LPS change from Baseline ≧20 minutes at Visit 7, count (%)",[1]; [5],3 (4%)
same,"Rebound insomnia frequency: patients with TST change from Baseline ≦−30 minutes at Visit 7, count (%)",[1]; [5],3 (4%)
same,"Rebound insomnia frequency: patients with WASO change from Baseline ≧35 minutes at Visit 7, count (%)",[1]; [5],1 (1%)
same,"WASO, Median","[1]; Doxepin HCl 3 mg group, Visit 7, Night 36 (discontinuation)",50.5 min
same,"WASO, Mean (SD)","[1]; Doxepin HCl 3 mg group, Visit 7, Night 36 (discontinuation, single-blind placebo after 35 nights of treatment)",65.8 (48.72) minutes
same,"WASO, Mean (SD)",[1]; [6],58.4 (42.76) minutes
same,"WASO, Median",[1]; [6],48.8 min
same,"WASO, Change from Baseline to Visit 7, Night 36, Median",[1]; Doxepin HCl 3 mg group,-22.0 min
same,"WASO, Change from Baseline to Visit 7, Night 37, Median",[1]; Doxepin HCl 3 mg group,-20.8 min
same,"WASO, Change from Baseline to Visit 7, Night 36, Mean (SD)","[1]; Doxepin HCl 3 mg group, 95% CI (−30.28, −6.57)",−18.4 (48.60) minutes
same,"WASO, Change from Baseline to Visit 7, Night 37, Mean (SD)","[1]; Doxepin HCl 3 mg group, 95% CI (−35.26, −14.11)",−24.7 (43.02) minutes
same,"WASO (rebound insomnia analysis), Median",[1]; Doxepin HCl 6 mg group,72.5 min
same,"WASO (rebound insomnia analysis), Mean (SD)",[1]; Doxepin HCl 6 mg group,78.4 (40.37) minutes
same,"Rebound insomnia frequency: patients with LPS change from Baseline ≧20 minutes at Visit 7, count (%)",[1]; [7],8 (12%)
same,"Rebound insomnia frequency: patients with TST change from Baseline ≦−30 minutes at Visit 7, count (%)",[1]; [7],6 (9%)
same,"Rebound insomnia frequency: patients with WASO change from Baseline ≧35 minutes at Visit 7, count (%)",[1]; [7],7 (10%)
same,"Rebound insomnia frequency: patients with LPS change from Baseline ≧20 minutes at Visit 7, count (%)",[1]; [8],2 (3%)
same,"Rebound insomnia frequency: patients with TST change from Baseline ≦−30 minutes at Visit 7, count (%)",[1]; [8],2 (3%)
same,"Rebound insomnia frequency: patients with WASO change from Baseline ≧35 minutes at Visit 7, count (%)",[1]; [8],3 (4%)
same,"WASO, Median","[1]; Doxepin HCl 6 mg group, Visit 7, Night 36 (discontinuation)",46.0 min
same,"WASO, Mean (SD)","[1]; Doxepin HCl 6 mg group, Visit 7, Night 36 (discontinuation, single-blind placebo after 35 nights of treatment)",55.9 (40.26) minutes
same,"WASO, Mean (SD)",[1]; [9],56.0 (42.68) minutes
same,"WASO, Median",[1]; [9],49.0 min
same,"WASO, Change from Baseline to Visit 7, Night 36, Median",[1]; Doxepin HCl 6 mg group,-16.5 min
same,"WASO, Change from Baseline to Visit 7, Night 37, Median",[1]; Doxepin HCl 6 mg group,-20.0 min
same,"WASO, Change from Baseline to Visit 7, Night 36, Mean (SD)","[1]; Doxepin HCl 6 mg group, 95% CI (−34.99, −12.27)",−23.6 (46.93) minutes
same,"WASO, Change from Baseline to Visit 7, Night 37, Mean (SD)","[1]; Doxepin HCl 6 mg group, 95% CI (−36.26, −12.38)",−24.3 (47.41) minutes
same,"Changes in other clinical laboratory tests, vital sign measurements, physical examinations, neurological assessments, or ECG parameters",[2]; 3 mg and 6 mg,no clinically relevant changes
same,Next day residual effects,[2]; 3 mg and 6 mg,no significant next day residual effects
same,Withdrawal effects,"[2]; 3 mg and 6 mg, abrupt discontinuation",no withdrawal effects
same,"Body Weight, Change from Screening, mean (±SD)",[2]; Doxepin HCl 3 mg,0.3 (2.21) kg
same,"Body Weight, Change from Screening, mean (±SD)",[2]; Doxepin HCl 6 mg,0.0 (2.19) kg
same,"Sedative tolerance (sleep maintenance variables across study visits, PSG)","[3]; 3 mg and 6 mg, 35-day double-blind treatment",no evidence of sedative tolerance
same,"8-hour WASO, Mean (SD)","[3]; doxepin 3 mg group, Baseline (single-blind placebo), ITT",67.8 (33.56) minutes
same,"LPS (latency to persistent sleep, PSG), Mean (SD)",[3]; [10],35.9 (29.84) minutes
same,"SE - Hour 8 (PSG), Mean (SD)",[3]; [10],74.9 (22.87) %
same,"TST (8-hour PSG), Mean (SD)",[3]; [10],380.3 (46.09) minutes
same,"8-hour WASO, Mean (SD)","[3]; doxepin 3 mg, Night 1 (primary), ITT, p<0.0001 vs placebo",41.4 (31.51) minutes
same,"LPS (PSG), Mean (SD)","[3]; doxepin 3 mg, Night 1, ITT, p 0.0110 vs placebo",26.7 (23.42) minutes
same,"SE (8-hour PSG), Mean (SD)",[3]; [11],86.5 (8.68) %
same,"SE - Hour 8 (PSG), Mean (SD)",[3]; [11],87.8 (14.28) %
same,"TST (8-hour PSG), Mean (SD)",[3]; [11],415.3 (41.65) minutes
same,"8-hour WASO, Mean (SD)","[3]; doxepin 3 mg, Night 15, ITT, p 0.0053 vs placebo",44.8 (27.26) minutes
